# Assay results from article PMC3626541, “A first in human, safety, pharmacokinetics, and clinical activity phase I study of once weekly administration of the Hsp90 inhibitor ganetespib (STA-9090) in patients with solid malignancies” (BMC Cancer, 2013).
# Tested on: patients with advanced solid tumors
# Assay: Safety: adverse events (NCI CTCAE v3.0), ECG
# Type: in vivo, human
# Method: Patients’ demographics and medical history were recorded at baseline. Physical examination and PS were assessed at baseline and on Day 1 of each cycle. Adverse events (AEs), vital signs, hematology and chemistry values, and creatinine clearance were assessed at baseline and weekly during treatment. Toxicity was graded using National Cancer Institute Common Terminology Criteria for Adverse Events (NCI CTCAE), version 3.0. An electrocardiogram (ECG) was performed at baseline, before and after treatment on Days 1 and 15 of Cycles 1 and 2, and on Day 15 of even-numbered cycles thereafter. CT scans were done at baseline and every 8 weeks thereafter. Tumor response was assessed using Response Evaluation Criteria in Solid Tumors (RECIST, v1.0), with confirmation of responses performed at least 4 weeks later.
# [1] = Cycle 1 Day 1 post-dose, patients with QTc prolongation
# [2] = repeat ECG later on the same day
smiles,measurement,setting,value
"CC(C)c1cc(-c2n[nH]c(=O)n2-c2ccc3c(ccn3C)c2)c(O)cc1O [Ganetespib, 5-[2,4-dihydroxy-5-(1 methyl-ethyl)phenyl]-2,4 dihydro-4-(1-methyl-1H indol-5 yl)-3H-1,2,4 triazole-3-one]","Constipation, AE of any grade, Number (%) of patients","150-216 mg/m^2, n = 22",3 (13.6) n (%)
same,"Decreased appetite, AE of any grade, Number (%) of patients","150-216 mg/m^2, n = 22",8 (36.4) n (%)
same,"Dehydration, AE of any grade, Number (%) of patients","150-216 mg/m^2, n = 22",3 (13.6) n (%)
same,"Dehydration, CTCAE Grade 3 and 4 AE, Number (%) of patients","150-216 mg/m^2, n = 22",1 (4.5) n (%)
same,"Dehydration, serious adverse events, Number (%) of patients","150-216 mg/m^2, n = 22",1 (4.5) n (%)
same,"Diarrhea, AE of any grade, Number (%) of patients","150-216 mg/m^2, n = 22",21 (95.5) n (%)
same,"Diarrhea, CTCAE Grade 3 and 4 AE, Number (%) of patients","150-216 mg/m^2, n = 22",2 (9.1) n (%)
same,"Dizziness, AE of any grade, Number (%) of patients","150-216 mg/m^2, n = 22",3 (13.6) n (%)
same,"Dry mouth, AE of any grade, Number (%) of patients","150-216 mg/m^2, n = 22",3 (13.6) n (%)
same,"Dyspnea, AE of any grade, Number (%) of patients","150-216 mg/m^2, n = 22",4 (18.2) n (%)
same,"Extremity pain, AE of any grade, Number (%) of patients","150-216 mg/m^2, n = 22",1 (4.5) n (%)
same,"Fatigue, AE of any grade, Number (%) of patients","150-216 mg/m^2, n = 22",13 (59.1) n (%)
same,"Fatigue, CTCAE Grade 3 and 4 AE, Number (%) of patients","150-216 mg/m^2, n = 22",4 (18.2) n (%)
same,"Headache, AE of any grade, Number (%) of patients","150-216 mg/m^2, n = 22",6 (27.3) n (%)
same,"Hyperbilirubinemia, CTCAE Grade 3 and 4 AE, Number (%) of patients","150-216 mg/m^2, n = 22",2 (9.1) n (%)
same,"Hypokalemia, AE of any grade, Number (%) of patients","150-216 mg/m^2, n = 22",4 (18.2) n (%)
same,"Hypokalemia, CTCAE Grade 3 and 4 AE, Number (%) of patients","150-216 mg/m^2, n = 22",2 (9.1) n (%)
same,"Hyponatremia, CTCAE Grade 3 and 4 AE, Number (%) of patients","150-216 mg/m^2, n = 22",0 n (%)
same,"Hypophosphatemia, AE of any grade, Number (%) of patients","150-216 mg/m^2, n = 22",2 (9.1) n (%)
same,"Hypophosphatemia, CTCAE Grade 3 and 4 AE, Number (%) of patients","150-216 mg/m^2, n = 22",2 (9.1) n (%)
same,"Insomnia, AE of any grade, Number (%) of patients","150-216 mg/m^2, n = 22",6 (27.3) n (%)
same,"Musculoskeletal chest pain, AE of any grade, Number (%) of patients","150-216 mg/m^2, n = 22",4 (18.2) n (%)
same,"Nausea, AE of any grade, Number (%) of patients","150-216 mg/m^2, n = 22",7 (31.8) n (%)
same,"Peripheral edema, AE of any grade, Number (%) of patients","150-216 mg/m^2, n = 22",5 (22.7) n (%)
same,"Pneumonia, serious adverse events, Number (%) of patients","150-216 mg/m^2, n = 22",1 (4.5) n (%)
same,"Rash, AE of any grade, Number (%) of patients","150-216 mg/m^2, n = 22",1 (4.5) n (%)
same,"Serum amylase elevated, CTCAE Grade 3 and 4 AE, Number (%) of patients","150-216 mg/m^2, n = 22",1 (4.5) n (%)
same,"Spinal cord compression, CTCAE Grade 3 and 4 AE, Number (%) of patients","150-216 mg/m^2, n = 22",0 n (%)
same,"Urinary tract infection, AE of any grade, Number (%) of patients","150-216 mg/m^2, n = 22",3 (13.6) n (%)
same,"Vomiting, AE of any grade, Number (%) of patients","150-216 mg/m^2, n = 22",3 (13.6) n (%)
same,"Weight decreased, AE of any grade, Number (%) of patients","150-216 mg/m^2, n = 22",5 (22.7) n (%)
same,"ALT elevated, AE of any grade, Number (%) of patients","150-216 mg/m^2, n = 22, first of two ALT elevated lines",5 (22.7) n (%)
same,"ALT elevated, AE of any grade, Number (%) of patients","150-216 mg/m^2, n = 22, second of two ALT elevated lines",3 (13.6) n (%)
same,Incidence of diarrhea,150–216 mg/m^2 dose levels,95.5%
same,Incidence of fatigue,150–216 mg/m^2 dose levels,59.1%
same,"ALT elevation, CTCAE Grade 3 and 4 AE, Number (%) of patients","All patients, n = 53",3 (5.7) n (%)
same,"AST elevated, AE of any grade, Number (%) of patients","All patients, n = 53",9 (17) n (%)
same,"Abdominal distension, AE of any grade, Number (%) of patients","All patients, n = 53",6 (11.3) n (%)
same,"Abdominal pain, AE of any grade, Number (%) of patients","All patients, n = 53",20 (37.7) n (%)
same,"Abdominal pain, serious adverse events, Number (%) of patients","All patients, n = 53",2 (3.8) n (%)
same,"Anemia, AE of any grade, Number (%) of patients","All patients, n = 53",16 (30.2) n (%)
same,"Any event, AE of any grade, Number (%) of patients","All patients, n = 53",53 (100) n (%)
same,"Any event, CTCAE Grade 3 and 4 AE, Number (%) of patients","All patients, n = 53",36 (67.9) n (%)
same,"Any event, serious adverse events, Number (%) of patients","All patients, n = 53",15 (28.3) n (%)
same,"Arthralgia, CTCAE Grade 3 and 4 AE, Number (%) of patients","All patients, n = 53",2 (3.8) n (%)
same,"Asthenia, AE of any grade, Number (%) of patients","All patients, n = 53",8 (15.1) n (%)
same,"Asthenia, CTCAE Grade 3 and 4 AE, Number (%) of patients","All patients, n = 53",4 (7.5) n (%)
same,"Asthenia, serious adverse events, Number (%) of patients","All patients, n = 53",2 (3.8) n (%)
same,"Back pain, AE of any grade, Number (%) of patients","All patients, n = 53",8 (15.1) n (%)
same,"Constipation, AE of any grade, Number (%) of patients","All patients, n = 53",9 (17) n (%)
same,"Decreased appetite, AE of any grade, Number (%) of patients","All patients, n = 53",11 (20.8) n (%)
same,"Dehydration, AE of any grade, Number (%) of patients","All patients, n = 53",7 (13.2) n (%)
same,"Dehydration, CTCAE Grade 3 and 4 AE, Number (%) of patients","All patients, n = 53",3 (5.7) n (%)
same,"Dehydration, serious adverse events, Number (%) of patients","All patients, n = 53",2 (3.8) n (%)
same,"Diarrhea, AE of any grade, Number (%) of patients","All patients, n = 53",47 (88.7) n (%)
same,"Diarrhea, CTCAE Grade 3 and 4 AE, Number (%) of patients","All patients, n = 53",4 (7.5) n (%)
same,"Dizziness, AE of any grade, Number (%) of patients","All patients, n = 53",6 (11.3) n (%)
same,"Dry mouth, AE of any grade, Number (%) of patients","All patients, n = 53",6 (11.3) n (%)
same,"Dyspnea, AE of any grade, Number (%) of patients","All patients, n = 53",9 (17) n (%)
same,"Extremity pain, AE of any grade, Number (%) of patients","All patients, n = 53",6 (11.3) n (%)
same,"Fatigue, AE of any grade, Number (%) of patients","All patients, n = 53",30 (56.6) n (%)
same,"Fatigue, CTCAE Grade 3 and 4 AE, Number (%) of patients","All patients, n = 53",6 (11.3) n (%)
same,"Headache, AE of any grade, Number (%) of patients","All patients, n = 53",9 (17) n (%)
same,"Hyperbilirubinemia, CTCAE Grade 3 and 4 AE, Number (%) of patients","All patients, n = 53",3 (5.7) n (%)
same,"Hypokalemia, AE of any grade, Number (%) of patients","All patients, n = 53",7 (13.2) n (%)
same,"Hypokalemia, CTCAE Grade 3 and 4 AE, Number (%) of patients","All patients, n = 53",2 (3.8) n (%)
same,"Hyponatremia, CTCAE Grade 3 and 4 AE, Number (%) of patients","All patients, n = 53",3 (5.7) n (%)
same,"Hypophosphatemia, AE of any grade, Number (%) of patients","All patients, n = 53",7 (13.2) n (%)
same,"Hypophosphatemia, CTCAE Grade 3 and 4 AE, Number (%) of patients","All patients, n = 53",4 (7.5) n (%)
same,"Insomnia, AE of any grade, Number (%) of patients","All patients, n = 53",10 (18.9) n (%)
same,"Musculoskeletal chest pain, AE of any grade, Number (%) of patients","All patients, n = 53",6 (11.3) n (%)
same,"Nausea, AE of any grade, Number (%) of patients","All patients, n = 53",18 (34) n (%)
same,"Peripheral edema, AE of any grade, Number (%) of patients","All patients, n = 53",9 (17) n (%)
same,"Pneumonia, serious adverse events, Number (%) of patients","All patients, n = 53",2 (3.8) n (%)
same,"Rash, AE of any grade, Number (%) of patients","All patients, n = 53",6 (11.3) n (%)
same,"Serum amylase elevated, CTCAE Grade 3 and 4 AE, Number (%) of patients","All patients, n = 53",2 (3.8) n (%)
same,"Spinal cord compression, CTCAE Grade 3 and 4 AE, Number (%) of patients","All patients, n = 53",2 (3.8) n (%)
same,"Urinary tract infection, AE of any grade, Number (%) of patients","All patients, n = 53",8 (15.1) n (%)
same,"Vomiting, AE of any grade, Number (%) of patients","All patients, n = 53",10 (18.9) n (%)
same,"Weight decreased, AE of any grade, Number (%) of patients","All patients, n = 53",7 (13.2) n (%)
same,"ALT elevated, AE of any grade, Number (%) of patients","All patients, n = 53, first of two ALT elevated lines",10 (18.9) n (%)
same,"ALT elevated, AE of any grade, Number (%) of patients","All patients, n = 53, second of two ALT elevated lines",6 (11.3) n (%)
same,QT,[1],438 ms
same,QTc (QT with Bazett correction),[1],457 ms
same,Patients with dose reduction,all 53 patients,7.5%
same,Patients with dose reduction and delay,all 53 patients,7.5%
same,Patients with missed dose,all 53 patients,30.2%
same,Patients with dose modification,"all 53 patients, mainly due to adverse events",45.3%
same,Patients who discontinued treatment due to drug-unrelated adverse events,all in cohort 1,5.7%
same,Patients with Grade 3 or 4 AE,all patients,67.9%
same,Patients with Grade 3 or 4 fatigue,all patients,11.3%
same,"Patients with diarrhea, Grade 1 and 2",all patients,88.7%
same,"Patients with fatigue, Grade 1 and 2",all patients,56.6%
same,Patients with onset of diarrhea between days 1–7,all patients,75.5%
same,Patients with transient ALP elevation,all patients,18.9%
same,Patients with transient ALT elevation,all patients,11.3%
same,Patients with transient AST elevation,all patients,17%
same,Patients with treatment-related anemia,all patients,5.7%
same,Patients with treatment-related neutropenia,all patients,5.7%
same,Patients with visual changes,"all patients, mild and transient",15%
same,Patients with abdominal pain,"all patients, mild to moderate",37.7%
same,Patients with nausea,"all patients, mild to moderate",34%
same,Patients with vomiting,"all patients, mild to moderate",18.9%
same,Patients with on-treatment SAEs,"all patients, none considered treatment-related",28.3%
same,Patients with Grade 2 or 3 hyberbilirubinemia,"all patients, not considered study drug-related",7.5%
same,Patients with Grade 1 or 2 blurred vision,"doses of 35 mg/m^2, 114 mg/m^2 and 150 mg/m^2",Three patients
same,Patients with QTc prolongation,"higher dose levels, Cycle 1 Day 1 post-dose",Three patients
same,Patients with treatment-related visual impairment,mild and transient,Two patients
same,Deaths during the study,none deemed treatment-related,Three deaths
same,Patients with QTc changes,"not symptomatic, not considered clinically meaningful",91%
same,Patients with Grade 1 transient visual impairment,"one each at 216 and 259 mg/m^2, possibly related to study drug",2 patients
same,QT,[2],414 ms
same,QTc,[2],433 ms
